{
  "source": "patent US4223036A",
  "about": "“1-(1,3-Dioxolan-2-ylmethyl)-1H-1,2,4-triazoles” (Janssen Pharmaceutica N.V., priority 1979, dated 1980)",
  "key": {"[1]": {"tested_on": "Candida albicans", "test": "Activity against vaginal candidosis in rats (lowest oral dose active at the 14th day after infection)", "type": "in vivo, Female Wistar rats", "set-up": "lowest effective oral dose (vaginal candidosis in rats): unit not given here", "conditions": "Table I; oral once a day for two days; active at 14th day after infection", "protocol": "Experiment A: Activity of Compounds (I) Against Vaginal Candidosis in Rats\nFemale Wistar rats of ±100 g body weight were used. They were ovariectomized and hysterectomized and after three weeks of recovery, 100 μg of oestradiol undecylate in sesame oil was given subcutaneously once a week for 3 consecutive weeks. The thus induced pseudooestrus was controlled by microscopic examination of vaginal smears. Food and water were left available ad libitum.\nThe rats were infected intravaginally with 8.10^5 cells of Candida albicans, grown on Sabouraud broth for 48 hours at 37° C. and diluted with saline. The date of infection varied from day +25 to day +32 after surgical intervention, depending on the appearance of signs of induced pseudo-oestrus.\nThe drugs under investigation were administered orally once a day for two days starting from the day of infection. For each experiment there were placebo treated controls. The results were assessed by taking vaginal smears with sterile swabs on several days after infection. The swabs were put into Sabouraud broth in petri-dishes and incubated for 48 hours a 37° C. If no growth of Candida albicans occured, i.e., when the animals were negative at the end of the experiment, this was due to drug administration because it never happened in placebo treated controls.\nThe Tables I, II and III below give the lowest oral dose of the drug under investigation which was found active at the 14th day after infection."}, "[2]": {"tested_on": "Candida albicans", "test": "Activity against crop candidosis in turkeys (dose whereby crops of 50% of animals were completely negative)", "type": "in vivo", "conditions": "Table I; medicated feed for 13 consecutive days", "summary_of_the_method": "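14-day-old turkeys infected in the crop with 4.10^6 Candida albicans cells, then given compound in feed (mg/kg meal) for 13 days from infection. Crops homogenised at autopsy and plated on Sabouraud agar. ED50 is the feed dose at which 50% of birds had Candida-negative crops.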"}},
  "data": [
    {"smiles": "Clc1ccc([C@@]2(Cn3ccnc3)OC[C@H](COc3ccc(N4CCN(Cc5ccccc5)CC4)cc3)O2)c(Cl)c1", "note": "(relative stereo) [drawing 50]", "values": [
      {"measurement": "lowest effective oral dose (vaginal candidosis in rats)", "setting": "[1]", "result": 1.25},
      {"measurement": "ED50 (crop candidosis in turkeys)", "setting": "[2]", "result": "16 mg/kg of feed"}
    ]}
  ]
}
